Measurements: patent publication US20260199213A1, “PEPTIDE HAVING ACTIVITY OF IMPROVING STATE OF SKIN, AND USE THEREOF” (CAREGEN CO., LTD., priority 2022, published 2026)

Experiments:
Assay type in all cases: cell-based
elastin = experiment: Elastin expression by RT-PCR in NIH3T3 cells
Method: In this example, the aim was to confirm the effect of the peptide according to an example on improving endogenous skin aging, including improvement of wrinkles and enhancement of elasticity, etc., by evaluating the expression levels of collagen type 1 (Col1a1), fibronectin, elastin, and hyaluronic acid, which are known components of the dermis.
Specifically, NIH3T3 cells were seeded in a 6-well plate at a density of 3×10^5 cells/well and cultured for 24 hours. Next, the cells were washed once with serum-free DMEM media, and 10 μM, 50 μM or 1000 μM of a peptide consisting of an amino acid sequence of SEQ ID NO: 1 was dispensed into 1 mL of the serum-free media, and cultured in a CO2 incubator at 37° C. for 24 hours. Next, the culture was washed twice with PBS, and RNA was isolated from the culture using easy blue (iNtRON, Cat. No.: 17061, Korea). Next, using an RT kit (Enzynomics, Cat. NO.: RT200, Korea), the isolated RNA was reverse transcribed to synthesize the respective cDNA. Next, using the synthesized 1 ug cDNA, primers for Colla1, fibronectin, or elastin, and a PCR kit (Enzynomics, Cat. No.: P581T, Korea), polymerase chain reaction (PCR) was performed. Meanwhile, in this example, an untreated group was used as a control group, and a group to which […] was added was used as a positive control group, the nucleotide sequences of the primers used in this example are shown in Table 2 below.
In this example, the aim was to more specifically compare the effects of peptides according to an embodiment on improving intrinsic skin aging. To this end, a peptide consisting of an amino acid sequence of SEQ ID NO: 2, 3, or 4 having a sequence similar to a peptide according to an embodiment was set as a comparison group, and the expression levels of fibronectin and elastin were evaluated and compared in the same manner as in Example 2-1. […]

procollagen I alpha = experiment: Procollagen I alpha protein level by Collagen ELISA in NIH3T3 cells; conditions: 10 μM, 50 μM or 1000 μM peptide, 72 hours
Method: (§1) Additionally, to evaluate the expression levels of procollagen I alpha and hyaluronic acid at the protein level, NIH3T3 cells or HaCaT cells were seeded at a density of 1×10^4 cells/well in 24-well plates and then cultured for 24 hours. Next, the cells were washed once with serum-free DMEM media, and 10 μM, 50 μM or 1000 μM of the peptide consisting of the amino acid sequence of SEQ ID NO: 1 was dispensed into 2 mL of the serum-free media, and cultured in a CO2 incubator at 37° C. for 72 hours. Next, the culture was centrifuged to settle the suspended matter, and the supernatant was transferred to an e-tube. Next, Collagen ELISA (abcam, Cat No.: ab210579, UK) and HA ELISA (ECHELON biosciences, Cat No.: K-1200, USA) were performed on the centrifuged culture. Meanwhile, in this example, an untreated group was used as the control group, and a group to which TGF-β1 or EGF was added was used as the positive control group.

hyaluronic acid = experiment: Hyaluronic acid level by HA ELISA in HaCaT cells; conditions: 10 μM, 50 μM or 1000 μM peptide, 72 hours
Method: as §1

aquaporin-3 (AQP3) = experiment: AQP3 expression by RT-PCR in HaCaT cells; conditions: 10 μM, 50 μM or 1000 μM peptide, 24 hours
Method: In this example, the aim was to confirm the effect of the peptides according to an example on strengthening the skin barrier, by evaluating the expression levels of sirtuin-1 (SIRT-1) or aquaporin-3 (AQP3).
Specifically, HaCaT cells were seeded in a 6-well plate at a density of 3×10^5 cells/well and cultured for 24 hours. Next, the cells were washed once with serum-free DMEM media, and 10 μM, 50 μM or 1000 μM of the peptide consisting of the amino acid sequence of SEQ ID NO: 1 was dispensed into 1 mL of the serum-free media, and cultured in a CO2 incubator at 37° C. for 24 hours. Next, the culture was washed twice with PBS, and RNA was isolated from the culture using easy blue (iNtRON, Cat. No.: 17061, Korea). Next, using an RT kit (Enzynomics, Cat. NO.: RT200, Korea), the isolated RNA was reverse transcribed to synthesize the respective cDNA. Next, using the synthesized 1 ug cDNA, primers for SIRT-1 or AQP3, and a PCR kit (Enzynomics, Cat. No.: P581T, Korea), polymerase chain reaction (PCR) was performed. Meanwhile, in this example, an untreated group was used as the control group, and a group to which EGF was added was used as a positive control group, the nucleotide sequences of the primers used in this example are shown in Table 3 below.

SIRT-1 = SIRT-1 expression reduced by ultraviolet rays in HaCaT cells (RT-PCR); conditions: 15 mJ/cm^2 UV, 10 μM, 50 μM or 1000 μM peptide, 8 hours
Method: In this example, the aim was to confirm the effect of the peptide according to an embodiment on the recovery of skin barrier factors in damaged skin cells by evaluating changes in the levels of skin barrier factors in skin cells reduced by ultraviolet irradiation.
Specifically, HaCaT cells were seeded in a 6-well plate at a density of 5×10^5 cells/well and cultured for 24 hours. Next, the cells were washed once with serum-free DMEM media, and 10 μM, 50 μM or 1000 μM of the peptide consisting of the amino acid sequence of SEQ ID NO: 1 was dispensed into 1 mL of the serum-free media, and cultured in a CO2 incubator at 37° C. for 1 hour. Next, the above culture was transferred to an e-tube, mixed with 1 ml of PBS, and dispensed into a well plate. Next, using a UV irradiator (VILBER LOURMAT, Cat No.: 3102-BSU, France), 15 mJ/cm^2 ultraviolet rays were irradiated to the HaCaT cells. Next, the PBS in the well plate was removed, 900 μL of the culture medium in which the peptides were dispensed was added, and the plate was cultured in a CO2 incubator at 37° C. for 8 hours. Next, the culture was washed twice with PBS, and RNA was isolated from the culture using easy blue (iNtRON, Cat. No.: 17061, Korea). Next, using an RT kit (Enzynomics, Cat. NO.: RT200, Korea), the isolated RNA was reverse transcribed to synthesize the respective cDNA. […]

For GPRGDP [SEQ ID NO: 1], the expression of elastin (elastin; 10 μM, 50 μM or 1000 μM peptide, 24 hours, PCR, vs untreated group) was “increased”, the “expression of elastin (Example 2-2)” value (elastin; comparison experiment, FIG. 5 and FIG. 6) was “increased” and the “elastin expression effect compared to the comparison group” value (elastin; vs peptides of SEQ ID NO: 2, 3, or 4 (50 μM, 100 μM)) was “superior”. For the same substance, the “expression of procollagen I alpha at the protein level” value (procollagen I alpha) was “increased”, the “expression of hyaluronic acid at the protein level” value (hyaluronic acid) was “increased” and the “expression of skin barrier factor AQP3” value (aquaporin-3 (AQP3)) was “increases”. For the same substance, the “expression of SIRT-1 reduced by ultraviolet irradiation” value (SIRT-1) was “increased or restored”.
